# In patent US10160867B2, “Benzoxaborole-containing coating resistant to cellulose-supportable fungus” (THE PENN STATE RESEARCH FOUNDATION, priority 2015, dated 2018):
# How the values were obtained:
# [1] = test system: Alternaria alternata; assay: 3 day MIC, broth microdilution in 25% PDB; format: cell-based; settings: 72 h, 25% PDB, read-out: 3 day MIC
# Protocol: (§1) Stock solutions (concentrations of between 4,000 μg/mL to 10,000 μg/mL; stored at −18° C.) of the above antifungals were prepared in dimethyl sulfoxide (DMSO). The stock solutions were further diluted into sterile 25% potato dextrose broth (PDB) so that the diluted solutions could be used for the antifungal susceptibility studies. This way, a typical microdilution study would reach a final ratio of about 0.5-2% v/v of DMSO in 25% PDB.
# (§2) Spore inocula were prepared in sterile distilled water with 0.1% Tween® 20 (a polysorbate surfactant), and a hemocytometer was used to determine the spore density. Typically, the spore inoculum was prepared fresh prior to each study, and the inoculum was appropriately diluted to a final concentration of 0.4-1×10^5 spores/mL or colony-forming unit (CFU)/mL in each study. The spore suspension can be stored in a refrigerator at 4° C. for up to one week.
# (§3) The studies were performed in flat bottom, 96-well microtiter plates (Greiner Bio-One, Frickenhausen, Germany).
# (§4) Plates sealed with clear polyester film (VWR, Radnor, Pa.) were incubated at a temperature of about 25° C. The progress of fungal growth was monitored at 48 hours and 72 hours.
# [2] = test system: Penicillium brevicompactum; assay: 3 day MIC, broth microdilution in 25% PDB; format: cell-based; settings: 72 h, 25% PDB, read-out: 3 day MIC
# Protocol: as §1, §2, §3, §4
# [3] = test system: Penicillium corylophilum; assay: 3 day MIC, broth microdilution in 25% PDB; format: cell-based; settings: 72 h, 25% PDB, read-out: 3 day MIC
# Protocol: as §1, §2, §3, §4
# [4] = test system: Penicillium purpurogenum; assay: 3 day MIC, broth microdilution in 25% PDB; format: cell-based; settings: 72 h; Penicillium purpurogenum; 25% PDB; read-out: 3 day MIC
# Protocol: as §1, §2, §3, §4
# [5] = test system: Stachybotrys chartarum; assay: 3 day MIC, broth microdilution in 25% PDB; format: cell-based; settings: 72 h, 25% PDB, read-out: 3 day MIC
# Protocol: as §1, §2, §3, §4
# [6] = test system: Aspergillus flavus; assay: 3 day MIC, broth microdilution in 25% PDB; format: cell-based; settings: 72 h
# In short: (§5)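 Agents are diluted from DMSO stocks, giving a final DMSO level of about 0.5-2% v/v. Spore inocula are freshly prepared, hemocytometer-counted and set to 0.4-1×10^5 spores/mL final. Sealed plates sit at about 25° C, and growth is followed at 48 and 72 hours.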
# [7] = test system: Aspergillus niger; assay: 3 day MIC, broth microdilution in 25% PDB; format: cell-based; settings: 72 h
# In short: as §5
# [8] = test system: Aureobasidium pullulans; assay: 3 day MIC, broth microdilution in 25% PDB; format: cell-based; settings: 72 h
# In short: as §5
# [9] = test system: Cladosporium cladosporioides; assay: 3 day MIC, broth microdilution in 25% PDB; format: cell-based; settings: 72 h
# In short: as §5
# [10] = test system: Fusarium oxysparum ST-33; assay: 3 day MIC, broth microdilution in 25% PDB; format: cell-based; settings: ST33, 72 h
# In short: as §5
# [11] = test system: Mucor spp.; assay: 3 day MIC, broth microdilution in 25% PDB; format: cell-based; settings: 72 h
# In short: as §5
# [12] = test system: Rhizopus spp.; assay: 3 day MIC, broth microdilution in 25% PDB; format: cell-based; settings: 72 h
# In short: as §5
# [13] = test system: Alternaria alternata; assay: Fungus resistance test after painting over fungal growth (defacement rating); format: cell-based; settings: painted over fungal growth
# Description: (§6) In this series of experiments, fungal growth was allowed to cover a painted surface (surface containing 2 coats of the unaltered paint) to a defacement rating of 3-5, forming a ‘contaminated surface’. […] The paint application was extended approximately 1-2 cm beyond the edge of the disc onto the NSA medium. Each formulation used a separate brush to avoid cross contamination. The re-painted discs were placed back into the humid environment with elevated temperature to encourage fungal growth.
# (§7) This test was used to evaluate the ability of paint films containing antifungal additives to prevent the re-emergence of fungal growth after painting over existing growth.
# (§8) Olympic® Home interior flat latex paint (PPG Industries, Pittsburgh, Pa.) and Valspar® QuikHide White flat interior paint (Valspar Corporation, Minneapolis, Minn.) were used for the experiments in this study unless specified. Stock solutions of the antifungal additives of interest were prepared in reagent grade dimethyl sulfoxide (DMSO; Alfa Aesar, Ward Hill, Mass.). Additives were spiked (by adding appropriate amounts of the antifungal stock solutions) into the liquid paint at specified concentrations. Samples of additive-spiked paint were vigorously mixed with a vortex mixer for at least one minute to insure uniform dispersion of the additive in the paint. […] Studies that used other brands of paint followed the same protocol as described for those using the Olympic® Home interior flat latex paint.
# (§9) Test surfaces were prepared in triplicate. In most cases, the tested conditions were repeated on a different date, again in triplicate. […] Two coats of paint were applied with a polyester brush to completely cover both faces of the filter paper disc, allowing at least four hours drying time between coats.
# (§10) Nutrient-Salts Agar (NSA) media was prepared according to ASTM method G21-13 in 100×15 mm sterile polystyrene petri dishes (VWR® Radnor, Pa.) with a solidified agar layer from 3 to 6 mm (⅛ to ¼ in.) in depth. The agar was allowed to solidify for at least 24 hours before being used. The painted test filter paper discs were placed in the center of the agar plates in a biosafety hood while wearing clean nitrile gloves.
# (§11) The paint coatings were evaluated against three representative fungi: Stachybotrys chartarum, Penicillium chrysogenum, and Alternaria alternata. […] Fungal isolates of Alternaria alternata and Penicillium chrysogenum were obtained from the Plant Pathology and Environmental Microbiology Department at Penn State University.
# (§12) A spore suspension of each of these fungi was prepared by pouring a 20-mL portion of autoclaved deionized water containing 0.01% Tween® 20 onto a subculture of each fungal species. Spores were counted with the use of a hemocytometer (Hausser Scientific, Horsham, Pa.) under a microscope. Spore suspensions of Stachybotrys chartarum and Penicillium chrysogenum were diluted to 1×10^6 spores/mL with autoclaved deionized water. Spore suspensions of Alternaria alternata were used “as is” in the range of 200,000 to 400,000 spores/mL.
# (§13) Painted test surfaces were inoculated with a spray bottle or with a cotton-tipped applicator. To inoculate the sample with a spray bottle, the spore suspension was sprayed twice on the painted test discs with a spray bottle that delivered approximately 0.14 g of fluid per spray. To inoculate the sample with a cotton-tipped applicator, an autoclaved cotton-tipped applicator was submerged in approximately 400 μL of the inoculum solution and applied evenly over the surface of the painted test surface twice.
# [14] = test system: Penicillium chrysogenum; assay: as above; format: cell-based; settings: painted over fungal growth, +200 μg/mL in Valspar QuikHide paint
# Description: as §6, §7, §8, §9, §10, §11, §12, §13
# [15] = test system: Stachybotrys chartarum; assay: as above; format: cell-based; settings: painted over fungal growth
# Description: as §6, §7, §8, §9, §10, §11, §12, §13
# [16] = test system: Penicillium chrysogenum; assay: 3 day MIC, broth microdilution in 25% PDB; format: cell-based; settings: 72 h, 25% PDB, read-out: 3 day MIC
# Protocol: as §1, §2, §3, §4
# [17] = commercially available fungicidal agents; cited from earlier work
# [18] = +100 μg/mL in Olympic Home paint, 14 days
# [19] = +100 μg/mL in Olympic Home paint, 21 days
# [20] = +100 μg/mL in Olympic Home paint, 7 days
SMILES,MIC [1] [µg/mL],MIC [2] [µg/mL],MIC [3] [µg/mL],MIC [4] [µg/mL],MIC [5] [µg/mL],MIC [6] [µg/mL],MIC [7] [µg/mL],MIC [8] [µg/mL],MIC [9] [µg/mL],MIC [10] [µg/mL],MIC [11] [µg/mL],MIC [12] [µg/mL],"Average defacement rating ± standard deviation [13, 18]","Average defacement rating ± standard deviation [13, 19]",Average defacement rating ± standard deviation ([14]; 7 days),Average defacement rating ± standard deviation ([14]; 14 days),Average defacement rating ± standard deviation ([14]; 21 days),"Average defacement rating ± standard deviation [15, 20]","Average defacement rating ± standard deviation [15, 18]","Average defacement rating ± standard deviation [15, 19]",also measured
"OB1OCc2cc(F)ccc21 [Compound B9, 5-Fluoro-1,3-dihydro-2,1-benzoxaborol-1-ol]",1.6,0.2,0.39,0.78,0.13,1,0.25,0.125,0.1,0.25,0.25,0.5,5.1 ± 2.1 (12),4.6 ± 2.2 (12),8.7 ± 1.0 (9),2.6 ± 3.1 (9),0.0 ± 0.0 (9),7.2 ± 2.6 (9),1.3 ± 3.0 (9),1.0 ± 2.8 (9),"Average defacement rating ± standard deviation ([13]; +200 μg/mL in Olympic Home paint, 7 days): 9.7 ± 0.6 (3); Average defacement rating ± standard deviation ([13]; +200 μg/mL in Olympic Home paint, 14 days): 7.0 ± 4.4 (3); Average defacement rating ± standard deviation ([13]; +200 μg/mL in Olympic Home paint, 21 days): 6.3 ± 5.5 (3); Average defacement rating ± standard deviation ([15]; +10 μg/mL in Olympic Home paint, 7 days): 0.3 ± 0.6 (3); Average defacement rating ± standard deviation ([15]; +10 μg/mL in Olympic Home paint, 14 days): 0.0 ± 0.0 (3); Average defacement rating ± standard deviation ([15]; +10 μg/mL in Olympic Home paint, 21 days): 0.0 ± 0.0 (3)"
c1ccc2[nH]c(-c3cscn3)nc2c1 [Thiabendazole],100,0.4,0.39,0.2,25,12.5,12.5,0.4,0.8,25,> 200,400,0.0 ± 0.0 (6),0.0 ± 0.0 (6),6.7 ± 4.6 (9),2.2 ± 4.4 (9),2.2 ± 4.4 (9),0.7 ± 1.6 (6),0.2 ± 0.8 (6),0.2 ± 0.8 (6),"MIC [16]: 0.4 µg/mL; Average defacement rating ± standard deviation [13, 20]: 0.0 ± 0.0 (6); Average defacement rating ± standard deviation ([13]; +1000 μg/mL in Olympic Home paint, 7 days): 7.3 ± 1.3 (10); Average defacement rating ± standard deviation ([13]; +1000 μg/mL in Olympic Home paint, 14 days): 3.6 ± 1.7 (10); Average defacement rating ± standard deviation ([13]; +1000 μg/mL in Olympic Home paint, 21 days): 2.8 ± 1.1 (10); Solubility in water [17]: 8 µg/mL"
